The nature of data set [1]: Rifalazil solubility in surfactants and surfactant mixtures. In kind it is physicochemical. To be noted: thermodynamic from solid. The method, then: The solubility of rifalazil in various surfactants and surfactant mixtures was measured. Excess Rifalazil, drug substance, was equilibrated with the excipient or excipient blend at the indicated temperature for 24 hrs under constant mixing. At the end of the equilibration time, insoluble drug was removed by centrifugation and the supernatant was assayed by UV spectroscopy and/or HPLC to determine the concentration of Rifalazil.

Data set [2] is described as follows: Pharmacokinetics after single peroral 5 mg rifalazil, fed and fasted. In kind it is in vivo. As to conditions: liquid-filled vs microgranulated, beagle dogs. The method, then: Pharmacokinetic parameters were determined following a single peroral administration of 5 mg of rifalazil in healthy male beagle dogs. The rifalazil was formulated either as a liquid-filled capsule of Example 5 or as a powder-filled capsule containing microgranulated rifalazil as described in U.S. Pat. No. 5,547,683.
Both formulations were administered under fed and fasted conditions. All animals were fasted overnight prior to dosing. Animals designated as “fed” were administered a blended combination of dog chow and water in a 1:3 ratio (e.g. 250 g chow and 750 g water) via oral gavage at a dose volume of 20 mL/kg within approximately 30 minutes prior to dosing and food was provided Ad-libitum after approximately 4 hours following dosing. Animals in “fasted” groups were not fed prior to dosing and food was withheld until after approximately 4 hours after dosing. […]
Pharmacokinetic endpoints and parameters were calculated by noncompartmental analysis (NCA) using WinNonlin®.
The pharmacokinetic parameters Tmax, Cmax, AUCt, AUC∞, T1/2 (elimination), and F (bioavailability) were calculated as well as the coefficient of variation (CV) in each. […]

Molecules are shown by their SMILES. ≈ marks a conversion by molar mass, not a printed value.

With `CO[C@H]1/C=C/O[C@@]2(C)Oc3c(C)c(O)c4c(=O)c(c5oc6cc(N7CCN(CC(C)C)CC7)cc(O)c6nc-5c4c3C2=O)NC(=O)/C(C)=C\C=C\[C@H](C)[C@H](O)[C@@H](C)[C@@H](O)[C@@H](C)[C@H](OC(C)=O)[C@@H]1C` [Rifalazil], the solubility at 24 h in data set [1] (Formulation M1 (excipient blend), aqueous with cosolvent or surfactant or cyclodextrin, in Formulation M1, 24 hrs equilibration) came to 15.5 mg/mL (≈ 16.5 mM); in data set [1] (Formulation M3 (excipient blend), aqueous with cosolvent or surfactant or cyclodextrin, in Formulation M3, 24 hrs equilibration), 25.8 mg/mL (≈ 27.4 mM); in data set [1] (Formulation M4 (excipient blend), aqueous with cosolvent or surfactant or cyclodextrin, in Formulation M4, 24 hrs equilibration), 34.1 mg/mL (≈ 36.2 mM); in data set [1] (Formulation M5 (excipient blend), aqueous with cosolvent or surfactant or cyclodextrin, in Formulation M5, 24 hrs equilibration) it was 28.4 mg/mL (≈ 30.1 mM); in data set [1] (Formulation M6 (excipient blend), aqueous with cosolvent or surfactant or cyclodextrin, in Formulation M6, 24 hrs equilibration), 30.8 mg/mL (≈ 32.8 mM); in data set [1] (Formulation M8 (excipient blend), aqueous with cosolvent or surfactant or cyclodextrin, in Formulation M8, 24 hrs equilibration) it was 26.9 mg/mL (≈ 28.6 mM). Also, the solubility at 24 h in data set [1] (Formulation M9 (excipient blend), aqueous with cosolvent or surfactant or cyclodextrin, in Formulation M9, 24 hrs equilibration) was determined as 19.6 mg/mL (≈ 20.8 mM); in data set [1] (Formulation M10 (excipient blend), aqueous with cosolvent or surfactant or cyclodextrin, in Formulation M10, 24 hrs equilibration), 36.9 mg/mL (≈ 39.2 mM); in data set [1] (Formulations A and B (excipient blend), aqueous with cosolvent or surfactant or cyclodextrin, in Formulations A and B, 24 hrs equilibration), 23 mg/mL (≈ 24.4 mM); in data set [1] (Formulations C and D (excipient blend), aqueous with cosolvent or surfactant or cyclodextrin, in Formulations C and D, 24 hrs equilibration) it was 21 mg/mL (≈ 22.3 mM); in data set [1] (aqueous with cosolvent or surfactant or cyclodextrin, in Cremophor ELP, 24 hrs equilibration at 37° C.) it was 35 mg/mL (≈ 37.2 mM); in data set [1] (aqueous with cosolvent or surfactant or cyclodextrin, in Cremophor RH40, 24 hrs equilibration at 37° C.), 23 mg/mL (≈ 24.4 mM). Further, the solubility at 24 h in data set [1] (aqueous with cosolvent or surfactant or cyclodextrin, in Labrafil M 1944 CS, 24 hrs equilibration) amounted to 41.6 mg/mL (≈ 44.2 mM); in data set [1] (aqueous with cosolvent or surfactant or cyclodextrin, in Labrafil M 19944 CS:Etocas 35 (5:1), 24 hrs equilibration) it was 29 mg/mL (≈ 30.8 mM); in data set [1] (aqueous with cosolvent or surfactant or cyclodextrin, in Labrasol, 24 hrs equilibration), 23 mg/mL (≈ 24.4 mM); in data set [1] (aqueous with cosolvent or surfactant or cyclodextrin, in Lauroglycol 90, 24 hrs equilibration), 40 mg/mL (≈ 42.5 mM); in data set [1] (aqueous with cosolvent or surfactant or cyclodextrin, in TPGS, 24 hrs equilibration at 37° C.), 22 mg/mL (≈ 23.4 mM); in data set [1] (oil or lipid, in Oleic Acid, 24 hrs equilibration), 59 mg/mL (≈ 62.7 mM). The solubility at 24 h in data set [1] (oil or lipid, in Peceol, 24 hrs equilibration) was 14 mg/mL (≈ 14.9 mM); in data set [1] (organic solvent or mixture, in PEG 400, 24 hrs equilibration) it was 8 mg/mL (≈ 8.5 mM); in data set [1] (organic solvent or mixture, in PEG 1500, equilibration at 60° C. to melt PEG 1500), 62 mg/mL (≈ 65.9 mM). Further, in data set [2], the “effect of changes in the formulation upon the elimination half-life (T1/2)” value is on record as “no effect”.

These data come from patent US20070248668A1, “Pharmaceutical compositions and uses thereof” (priority 2006, published 2007).
